Measured values published in patent US11446287B2, “Compounds and methods for EP300 or CBP modulation and indications therefor” (Opna Immuno-Oncology SA, priority 2019, dated 2022).

biological target: T1, Recombinant human CBP containing the bromodomain (CBP-BD (1043-1159)) (Homo sapiens, UniProt Q92793); assay: CBP Alphascreen binding assay; conditions: read-out: CREBBP (CBP) IC50
T1 construct: Recombinant human CBP bromodomain (CBP-BD (1043-1159)); made in house; host or cells: E. coli BL21-CodonPlus (DE3), modified pET vector
T1 sequence (Q92793 1081-1197): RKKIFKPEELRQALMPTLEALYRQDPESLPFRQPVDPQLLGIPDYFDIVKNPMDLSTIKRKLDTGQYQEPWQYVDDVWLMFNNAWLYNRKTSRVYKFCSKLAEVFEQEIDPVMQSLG
Procedure, shortened: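 Buffer: 50 mM HEPES pH 7.5, 50 mM NaCl, 0.01% BSA, 0.01% Triton X-100, 2 mM DTT. The signal was normalised to plate controls and fitted with a four-parameter curve to give IC50.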

Question: Which IC50 does the source give for `CCOc1cc(C(=O)O)cc(OCC)c1-n1cc(-c2ccc(OC)cc2F)c2ncc(-c3c(C)noc3C)cc21` [P-0194, 4-(6-(3,5-dimethylisoxazol-4-yl)-3-(2-fluoro-4-methoxyphenyl)-1H-pyrrolo[3,2-b]pyridin-1-yl)-3,5-diethoxybenzoic acid] here?
Answer: The IC50 was 0.1 to 1000 nM.

Question: For `CCOc1cc(C(=O)O)cc(OCC)c1-n1cc(-c2cnn(C)c2)c2ncc(-c3c(C)noc3C)cc21` [P-0195, 4-(6-(3,5-dimethylisoxazol-4-yl)-3-(1-methyl-1H-pyrazol-4-yl)-1H-pyrrolo[3,2-b]pyridin-1-yl)-3,5-diethoxybenzoic acid], which IC50 is on record?
Answer: The IC50 was 0.1 to 1000 nM.

Question: How did the IC50 turn out when `Cc1noc(C)c1-c1cnc2c(-c3ccccc3)cn(-c3ccc(C(=O)O)cc3OC(F)(F)F)c2c1` [P-0196, 4-(6-(3,5-dimethylisoxazol-4-yl)-3-phenyl-1H-pyrrolo[3,2-b]pyridin-1-yl)-3-(trifluoromethoxy)benzoic acid] was run?
Answer: Its IC50 is 0.1 to 1000 nM.

Question: How did the IC50 turn out when `Cc1noc(C)c1-c1cnc2c(c1)c(-c1c(Cl)cc(C(=O)O)cc1Cl)cn2[C@@H](C)c1ccccn1` [P-0197, (S)-3,5-dichloro-4-(5-(3,5-dimethylisoxazol-4-yl)-1-(1-(pyridin-2-yl)ethyl)-1H-pyrrolo[2,3-b]pyridin-3-yl)benzoic acid] was run?
Answer: Its IC50 is 0.1 to 1000 nM.

Question: Which IC50 does the source give for `Cc1noc(C)c1-c1cnc2c(c1)c(-c1c(Cl)cc(C(=O)O)cc1OC(F)(F)F)cn2C(C1CC1)C1CC1` [P-0198, 3-chloro-4-(1-(dicyclopropylmethyl)-5-(3,5-dimethylisoxazol-4-yl)-1H-pyrrolo[2,3-b]pyridin-3-yl)-5-(trifluoromethoxy)benzoic acid] here?
Answer: The IC50 was 0.1 to 1000 nM.

Question: How did the IC50 turn out when `Cc1noc(C)c1-c1cnc2c(c1)c(-c1ccc(C(=O)O)cc1OC(F)(F)F)cn2C(CC#N)C1CC1` (stereo not shown) [P-0199, 4-(1-(2-cyano-1-cyclopropylethyl)-5-(3,5-dimethylisoxazol-4-yl)-1H-pyrrolo[2,3-b]pyridin-3-yl)-3-(trifluoromethoxy)benzoic acid] was run?
Answer: The IC50 was 0.1 to 1000 nM.

Question: Which IC50 does the source give for `Cc1noc(C)c1-c1cnc2c(c1)c(-c1ccc(C(=O)O)cc1OC(F)(F)F)cn2C(CC#N)C1CCCC1` (stereo not shown) [P-0200, 4-(1-(2-cyano-1-cyclopentylethyl)-5-(3,5-dimethylisoxazol-4-yl)-1H-pyrrolo[2,3-b]pyridin-3-yl)-3-(trifluoromethoxy)benzoic acid] here?
Answer: Its IC50 is 0.1 to 1000 nM.

Question: With `CCOc1cc(C(=O)O)cc(OCC)c1-n1cc(-c2cnc(OC)nc2)c2ncc(-c3c(C)noc3C)cc21` [P-0201, 4-(6-(3,5-dimethylisoxazol-4-yl)-3-(2-methoxypyrimidin-5-yl)-1H-pyrrolo[3,2-b]pyridin-1-yl)-3,5-diethoxybenzoic acid] as the compound, how does the IC50 read?
Answer: Its IC50 is 0.1 to 1000 nM.

Question: `Cc1noc(C)c1-c1cnc2c(c1)c(-c1ccc(C(=O)O)cc1OC(F)(F)F)cn2S(=O)(=O)C1CC1` [P-0202, 4-(1-(cyclopropylsulfonyl)-5-(3,5-dimethylisoxazol-4-yl)-1H-pyrrolo[2,3-b]pyridin-3-yl)-3-(trifluoromethoxy)benzoic acid] was tested. Which IC50 did it give?
Answer: The IC50 was 0.1 to 1000 nM.

Question: Which IC50 does the source give for `Cc1noc(C)c1-c1cnc2c(c1)c(-c1ccc(C(=O)O)cc1OC(F)(F)F)cn2-c1ccnc(C(C)C)c1` [P-0203, 4-(5-(3,5-dimethylisoxazol-4-yl)-1-(2-isopropylpyridin-4-yl)-1H-pyrrolo[2,3-b]pyridin-3-yl)-3-(trifluoromethoxy)benzoic acid] here?
Answer: The IC50 was 0.1 to 1000 nM.

Question: `Cc1noc(C)c1-c1cnc2c(c1)c(-c1ccc(C(=O)O)cc1OC(F)(F)F)cn2-c1cnccc1C#N` [P-0204, 4-(1-(4-cyanopyridin-3-yl)-5-(3,5-dimethylisoxazol-4-yl)-1H-pyrrolo[2,3-b]pyridin-3-yl)-3-(trifluoromethoxy)benzoic acid] was tested. Which IC50 did it give?
Answer: Its IC50 is 0.1 to 1000 nM.

Question: How did the IC50 turn out when `CCOc1cc(C(=O)O)cc(F)c1-n1cc(-c2ccccc2)c2ncc(-c3c(C)noc3C)cc21` [P-0205, 4-(6-(3,5-dimethylisoxazol-4-yl)-3-phenyl-1H-pyrrolo[3,2-b]pyridin-1-yl)-3-ethoxy-5-fluorobenzoic acid] was run?
Answer: Its IC50 is 0.1 to 1000 nM.

Question: For `CCOc1cccc(C#N)c1-n1cc(-c2ccccc2)c2ncc(-c3c(C)noc3C)cc21` [P-0206, 2-(6-(3,5-dimethylisoxazol-4-yl)-3-phenyl-1H-pyrrolo[3,2-b]pyridin-1-yl)-3-ethoxybenzonitrile], which IC50 is on record?
Answer: The IC50 was 0.1 to 1000 nM.

Question: `Cc1noc(C)c1-c1cnc2c(-c3ccccc3)cn(-c3c(Cl)cccc3C#N)c2c1` [P-0207, 3-chloro-2-(6-(3,5-dimethylisoxazol-4-yl)-3-phenyl-1H-pyrrolo[3,2-b]pyridin-1-yl)benzonitrile] was tested. Which IC50 did it give?
Answer: Its IC50 is 1000 to 8000 nM.

Question: With `CCOc1cc(C(=O)O)cc(OCC)c1-n1cc(C2=CCC(F)(F)CC2)c2ncc(-c3c(C)noc3C)cc21` [P-0208, 4-(3-(4,4-difluorocyclohex-1-en-1-yl)-6-(3,5-dimethylisoxazol-4-yl)-1H-pyrrolo[3,2-b]pyridin-1-yl)-3,5-diethoxybenzoic acid] as the compound, how does the IC50 read?
Answer: The IC50 was 0.1 to 1000 nM.

Question: With `CCOc1cc(C(=O)O)cc(OCC)c1-n1cc(-c2ccc(F)c(Cl)c2)c2ncc(-c3c(C)noc3C)cc21` [P-0209, 4-(3-(3-chloro-4-fluorophenyl)-6-(3,5-dimethylisoxazol-4-yl)-1H-pyrrolo[3,2-b]pyridin-1-yl)-3,5-diethoxybenzoic acid] as the compound, how does the IC50 read?
Answer: The IC50 was 0.1 to 1000 nM.

Question: For `CCOc1cc(C(=O)O)cc(OCC)c1-n1cc(CC2CCC2)c2ncc(-c3c(COC)noc3C)cc21` [P-0210, 4-(3-(cyclobutylmethyl)-6-(3-(methoxymethyl)-5-methylisoxazol-4-yl)-1H-pyrrolo[3,2-b]pyridin-1-yl)-3,5-diethoxybenzoic acid], which IC50 is on record?
Answer: Its IC50 is 0.1 to 1000 nM.

Question: For `Cc1cnccc1-n1cc(-c2ccc(C(=O)O)cc2OC(F)(F)F)c2cc(-c3c(C)noc3C)cnc21` [P-0211, 4-(5-(3,5-dimethylisoxazol-4-yl)-1-(3-methylpyridin-4-yl)-1H-pyrrolo[2,3-b]pyridin-3-yl)-3-(trifluoromethoxy)benzoic acid], which IC50 is on record?
Answer: The IC50 was 0.1 to 1000 nM.

Question: How did the IC50 turn out when `Cc1noc(C)c1-c1cnc2c(c1)c(-c1ccc(C(=O)O)cc1OC(F)(F)F)cn2C1CCS(=O)(=O)CC1` [P-0212, 4-(5-(3,5-dimethylisoxazol-4-yl)-1-(1,1-dioxidotetrahydro-2H-thiopyran-4-yl)-1H-pyrrolo[2,3-b]pyridin-3-yl)-3-(trifluoromethoxy)benzoic acid] was run?
Answer: The IC50 was 0.1 to 1000 nM.

Question: `Cc1noc(C)c1-c1cnc2c(c1)c(-c1ccc(C(=O)O)cc1OC(C)C)cn2C(C1CC1)C1CC1` [P-0213, 4-(1-(dicyclopropylmethyl)-5-(3,5-dimethylisoxazol-4-yl)-1H-pyrrolo[2,3-b]pyridin-3-yl)-3-isopropoxybenzoic acid] was tested. Which IC50 did it give?
Answer: Its IC50 is 0.1 to 1000 nM.

Question: For `Cc1noc(C)c1-c1cnc2c(c1)c(-c1ccc(C(=O)O)cc1OCC(F)(F)F)cn2C(C1CC1)C1CC1` [P-0214, 4-(1-(dicyclopropylmethyl)-5-(3,5-dimethylisoxazol-4-yl)-1H-pyrrolo[2,3-b]pyridin-3-yl)-3-(2,2,2-trifluoroethoxy)benzoic acid], which IC50 is on record?
Answer: The IC50 was 0.1 to 1000 nM.

Question: For `Cc1noc(C)c1-c1cnc2c(c1)c(-c1ccc(C(=O)O)cc1OC(F)(F)F)cn2-c1ncccc1C#N` [P-0215, 4-(1-(3-cyanopyridin-2-yl)-5-(3,5-dimethylisoxazol-4-yl)-1H-pyrrolo[2,3-b]pyridin-3-yl)-3-(trifluoromethoxy)benzoic acid], which IC50 is on record?
Answer: Its IC50 is 0.1 to 1000 nM.

Question: Which IC50 does the source give for `Cc1noc(C)c1-c1cnc2c(c1)c(-c1ccc(C(=O)O)cc1OC(F)(F)F)cn2-c1ncccc1C#CC1CC1` [P-0216, 4-(1-(3-(cyclopropylethynyl)pyridin-2-yl)-5-(3,5-dimethylisoxazol-4-yl)-1H-pyrrolo[2,3-b]pyridin-3-yl)-3-(trifluoromethoxy)benzoic acid] here?
Answer: Its IC50 is 0.1 to 1000 nM.

Question: How did the IC50 turn out when `CCOc1cc(C(=O)O)cc(OCC)c1-n1cc(-c2ccc(C#N)cc2F)c2ncc(-c3c(C)noc3C)cc21` [P-0217, 4-(3-(4-cyano-2-fluorophenyl)-6-(3,5-dimethylisoxazol-4-yl)-1H-pyrrolo[3,2-b]pyridin-1-yl)-3,5-diethoxybenzoic acid] was run?
Answer: Its IC50 is 0.1 to 1000 nM.

Question: `CCOc1cc(C(=O)O)cc(OCC)c1-n1cc(-c2ccc(C(=O)NC3CC3)cc2)c2ncc(-c3c(C)noc3C)cc21` [P-0218, 4-(3-(4-(cyclopropylcarbamoyl)phenyl)-6-(3,5-dimethylisoxazol-4-yl)-1H-pyrrolo[3,2-b]pyridin-1-yl)-3,5-diethoxybenzoic acid] was tested. Which IC50 did it give?
Answer: Its IC50 is 0.1 to 1000 nM.

Question: Which IC50 does the source give for `COC(=O)c1cc(OC)c(-n2cc(-c3ccccc3)c3ncc(-c4c(C)noc4C)cc32)c(OC)c1` [P-0219, methyl 4-(6-(3,5-dimethylisoxazol-4-yl)-3-phenyl-1H-pyrrolo[3,2-b]pyridin-1-yl)-3,5-dimethoxybenzoate] here?
Answer: The IC50 was 0.1 to 1000 nM.

Question: Which IC50 does the source give for `COc1cc(C(=O)O)cc(OC)c1-n1cc(-c2ccccc2)c2ncc(-c3c(C)noc3C)cc21` [P-0220, 4-(6-(3,5-dimethylisoxazol-4-yl)-3-phenyl-1H-pyrrolo[3,2-b]pyridin-1-yl)-3,5-dimethoxybenzoic acid] here?
Answer: The IC50 was 0.1 to 1000 nM.

Question: For `COc1cccc(OC)c1-n1cc(-c2ccccc2)c2ncc(-c3c(C)noc3C)cc21` [P-0221, 4-(1-(2,6-dimethoxyphenyl)-3-phenyl-1H-pyrrolo[3,2-b]pyridin-6-yl)-3,5-dimethylisoxazole], which IC50 is on record?
Answer: Its IC50 is 1000 to 8000 nM.

Question: For `CCOc1cc(C(=O)O)cc(OCC)c1-n1cc(-c2ccnc(F)c2)c2ncc(-c3c(C)noc3C)cc21` [P-0222, 4-(6-(3,5-dimethylisoxazol-4-yl)-3-(2-fluoropyridin-4-yl)-1H-pyrrolo[3,2-b]pyridin-1-yl)-3,5-diethoxybenzoic acid], which IC50 is on record?
Answer: The IC50 was 0.1 to 1000 nM.

Question: Which IC50 does the source give for `Cc1noc(C)c1-c1cnc2c(c1)c(-c1ccc(C(=O)O)cc1OC(F)(F)F)cn2-c1ccccc1F` [P-0223, 4-(5-(3,5-dimethylisoxazol-4-yl)-1-(2-fluorophenyl)-1H-pyrrolo[2,3-b]pyridin-3-yl)-3-(trifluoromethoxy)benzoic acid] here?
Answer: Its IC50 is 0.1 to 1000 nM.

Question: For `CCOc1cccc(Cl)c1-n1cc(-c2ccccc2)c2ncc(-c3c(C)noc3C)cc21` [P-0224, 4-(1-(2-chloro-6-ethoxyphenyl)-3-phenyl-1H-pyrrolo[3,2-b]pyridin-6-yl)-3,5-dimethylisoxazole], which IC50 is on record?
Answer: The IC50 was 1000 to 8000 nM.
